Experimental data as given in PubChem BioAssay AID1963830 (Molecular Pharmacology Branch, DTP, NCI, 2024).

Tested on: 922993-354-T-J3-PDC complex spheroid viability
Test: Anticancer human tumor 922993-354-T-J3-PDC patient-derived endometrial carcinoma cell line growth inhibition [POLQ]
Settings: for IC50: curve of first compound; for viability, T/C: stronger effect = lower value
Summary of the method: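 PDC + HUVEC + MSC complex spheroids; POLQ inhibitors ± partner drugs; top conc. at/near clinical Cmax, else 10 microM (SN-38 1 microM), half-log dilutions; 37 degrees C, 5% CO2.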

[1] = second compound 0.0316 µM, first compound 0.0316 µM
[2] = second compound 0.0316 µM, first compound 0.1 µM
[3] = second compound 0.0316 µM, first compound 0.316 µM
[4] = second compound 0.0316 µM, first compound 1 µM
[5] = second compound 0.0316 µM, first compound 3.16 µM
[6] = second compound 0.0316 µM, first compound 10 µM
[7] = second compound 0.1 µM, first compound 0.0316 µM
[8] = second compound 0.1 µM, first compound 0.1 µM
[9] = second compound 0.1 µM, first compound 0.316 µM
[10] = second compound 0.1 µM, first compound 1 µM
[11] = second compound 0.1 µM, first compound 3.16 µM
[12] = second compound 0.1 µM, first compound 10 µM
[13] = second compound 0.316 µM, first compound 0.0316 µM
[14] = second compound 0.316 µM, first compound 0.1 µM
[15] = second compound 0.316 µM, first compound 0.316 µM
[16] = second compound 0.316 µM, first compound 1 µM
[17] = second compound 0.316 µM, first compound 3.16 µM
[18] = second compound 0.316 µM, first compound 10 µM
[19] = second compound 1 µM, first compound 0.0316 µM
[20] = second compound 1 µM, first compound 0.1 µM
[21] = second compound 1 µM, first compound 0.316 µM
[22] = second compound 1 µM, first compound 1 µM
[23] = second compound 1 µM, first compound 3.16 µM
[24] = second compound 1 µM, first compound 10 µM
[25] = second compound 3.16 µM, first compound 0.0316 µM
[26] = second compound 3.16 µM, first compound 0.1 µM
[27] = second compound 3.16 µM, first compound 0.316 µM
[28] = second compound 3.16 µM, first compound 1 µM
[29] = second compound 3.16 µM, first compound 3.16 µM
[30] = second compound 3.16 µM, first compound 10 µM
[31] = second compound 10 µM, first compound 0.0316 µM
[32] = second compound 10 µM, first compound 0.1 µM
[33] = second compound 10 µM, first compound 0.316 µM
[34] = second compound 10 µM, first compound 1 µM
[35] = second compound 10 µM, first compound 3.16 µM
[36] = second compound 10 µM, first compound 10 µM
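Note: spheroids exposed to the agents for one week.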
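Throughout, for viability, T/C: 100% = DMSO vehicle control wells.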

`CCc1cc2c(N3CCc4c(cc(Cn5ccnc5)cc4-c4cn(C)nc4C(F)(F)F)C3=O)cc(C)nc2c(OC)n1` + Nc1ccc(C#CCN(C(=O)Cc2ncc(C(F)(F)F)cc2C(F)(F)F)c2ccc(F)cc2)nn1 was tested, and the IC50 (second compound 0.0316 µM) was over 10 µM, the IC50 (second compound 0.1 µM) was over 10 µM and the IC50 (second compound 0.316 µM) was over 10 µM. It also gave an IC50 (second compound 1 µM) of over 10 µM, an IC50 (second compound 3.16 µM) of over 10 µM and an IC50 (second compound 10 µM) of over 10 µM. The viability, T/C [1] was 103%, the viability, T/C [2] was 106% and the viability, T/C [3] was 105%. For the same compound, the viability, T/C [4] was 110%, the viability, T/C [5] was 107% and the viability, T/C [6] was 101%. The viability, T/C [7] was 108%, the viability, T/C [8] was 106% and the viability, T/C [9] was 108%. The viability, T/C [10] was 105%, the viability, T/C [11] was 101% and the viability, T/C [12] was 102%. The viability, T/C [13] was 103%, the viability, T/C [14] was 98.1% and the viability, T/C [15] was 105%. The viability, T/C [16] was 106%, the viability, T/C [17] was 109% and the viability, T/C [18] was 104%. For the same compound, the viability, T/C [19] was 102%, the viability, T/C [20] was 100% and the viability, T/C [21] was 107%. It also gave a viability, T/C [22] of 107%, a viability, T/C [23] of 106% and a viability, T/C [24] of 99.1%. The viability, T/C [25] was 99.8%, the viability, T/C [26] was 107% and the viability, T/C [27] was 102%. For the same compound, the viability, T/C [28] was 105%, the viability, T/C [29] was 103% and the viability, T/C [30] was 99.6%. For the same compound, the viability, T/C [31] was 99%, the viability, T/C [32] was 98.3% and the viability, T/C [33] was 100%. It also gave a viability, T/C [34] of 102%, a viability, T/C [35] of 99.3% and a viability, T/C [36] of 92%.
In the case of `CCc1cc2c(N3CCc4c(cc(Cn5ccnc5)cc4-c4cn(C)nc4C(F)(F)F)C3=O)ccnc2c(OC)n1` + Nc1ccc(C#CCN(C(=O)Cc2ncc(C(F)(F)F)cc2C(F)(F)F)c2ccc(F)cc2)nn1, the IC50 (second compound 0.0316 µM) is reported as over 10 µM, the IC50 (second compound 0.1 µM) is reported as over 10 µM and the IC50 (second compound 0.316 µM) is reported as over 10 µM. The IC50 (second compound 1 µM) was over 10 µM, the IC50 (second compound 3.16 µM) was over 10 µM and the IC50 (second compound 10 µM) was over 10 µM. For the same compound, the viability, T/C [1] was 104%, the viability, T/C [2] was 103% and the viability, T/C [3] was 105%. For the same compound, the viability, T/C [4] was 107%, the viability, T/C [5] was 107% and the viability, T/C [6] was 102%. It also gave a viability, T/C [7] of 106%, a viability, T/C [8] of 102% and a viability, T/C [9] of 107%. The viability, T/C [10] was 108%, the viability, T/C [11] was 106% and the viability, T/C [12] was 101%. The viability, T/C [13] was 105%, the viability, T/C [14] was 102% and the viability, T/C [15] was 103%. For the same compound, the viability, T/C [16] was 105%, the viability, T/C [17] was 103% and the viability, T/C [18] was 99.6%. It also gave a viability, T/C [19] of 105%, a viability, T/C [20] of 105% and a viability, T/C [21] of 102%. For the same compound, the viability, T/C [22] was 108%, the viability, T/C [23] was 105% and the viability, T/C [24] was 94.3%. The viability, T/C [25] was 102%, the viability, T/C [26] was 99.5% and the viability, T/C [27] was 104%. For the same compound, the viability, T/C [28] was 99%, the viability, T/C [29] was 106% and the viability, T/C [30] was 97.5%. The viability, T/C [31] was 99.2%, the viability, T/C [32] was 102% and the viability, T/C [33] was 99.4%. It also gave a viability, T/C [34] of 96.6%, a viability, T/C [35] of 100% and a viability, T/C [36] of 91%.
Work on `COc1cc2cc(C(=O)CCC(=O)O)sc2cc1OC` + Nc1ccc(C#CCN(C(=O)Cc2ncc(C(F)(F)F)cc2C(F)(F)F)c2ccc(F)cc2)nn1 yielded an IC50 (second compound 0.0316 µM) of over 10 µM, an IC50 (second compound 0.1 µM) of over 10 µM and an IC50 (second compound 0.316 µM) of over 10 µM. It also gave an IC50 (second compound 1 µM) of over 10 µM, an IC50 (second compound 3.16 µM) of over 10 µM and an IC50 (second compound 10 µM) of over 10 µM. The viability, T/C [1] was 104%, the viability, T/C [2] was 105% and the viability, T/C [3] was 108%. It also gave a viability, T/C [4] of 102%, a viability, T/C [5] of 109% and a viability, T/C [6] of 84.6%. For the same compound, the viability, T/C [7] was 108%, the viability, T/C [8] was 105% and the viability, T/C [9] was 103%. For the same compound, the viability, T/C [10] was 95.6%, the viability, T/C [11] was 104% and the viability, T/C [12] was 78.9%. It also gave a viability, T/C [13] of 102%, a viability, T/C [14] of 103% and a viability, T/C [15] of 98.3%. For the same compound, the viability, T/C [16] was 97.7%, the viability, T/C [17] was 102% and the viability, T/C [18] was 82.1%. For the same compound, the viability, T/C [19] was 102%, the viability, T/C [20] was 99.6% and the viability, T/C [21] was 108%. It also gave a viability, T/C [22] of 102%, a viability, T/C [23] of 103% and a viability, T/C [24] of 81%. For the same compound, the viability, T/C [25] was 99%, the viability, T/C [26] was 102% and the viability, T/C [27] was 98.5%. For the same compound, the viability, T/C [28] was 104%, the viability, T/C [29] was 105% and the viability, T/C [30] was 84%. The viability, T/C [31] was 94.6%, the viability, T/C [32] was 95.2% and the viability, T/C [33] was 97.7%. It also gave a viability, T/C [34] of 95%, a viability, T/C [35] of 104% and a viability, T/C [36] of 78.8%.
